According to article PMC11931565, “Exploring medium and long arm extensions of 1,2,4-triazole derivatives as Candida albicans 14α-demethylase (CYP51) inhibitors” (RSC Medicinal Chemistry, 2025):
≈ marks a conversion by molar mass, not a printed value. Where two headings read alike, the source gives them in different places. Numbered stars: 1 amine (or outer) side, 2 acyl side, 3 side chain; on linkers, the order of the positions; unused ones are H or OH. Bridge positions count the residues as written; N and C are the ends. Square brackets hold non-standard residues; d marks the D form. Peptide text beside a SMILES is read from it. * marks the point of attachment. hTyr(3S-OH,4S-OH,3'-OSO3H) = N[C@H](C(=O)O)[C@H](O)[C@@H](O)c1ccc(O)c(OS(=O)(=O)O)c1; Orn(4R-OH,5R-OH) = O=C([C@H](C[C@@H](O)[C@@H](O)N[*:3])N[*:1])[*:2]; Pro(3S-OH,4S-Me) = C[C@H]1CN[C@H](C(=O)O)[C@H]1O; X1 = CCCCCOc1ccc(-c2cc(-c3ccc(C(=O)*)cc3)no2)cc1; Gln(3R-OH) = NC(=O)C[C@@H](O)[C@H](N)C(=O)O; Hyp = O=C(O)[C@@H]1C[C@@H](O)CN1

Tests used:
[1] = test system: C. albicans wild-type clinical isolate CA14; assay: C. albicans susceptibility testing (CLSI broth microdilution MIC), strain CA14; format: cell-based, Candida albicans; settings: Candida albicans, RPMI 1640, 37 °C, read at 48 h
Description: (§1) Each novel compound was screened against C. albicans wild-type clinical isolate CA14 and C. albicans laboratory strain SC5314 using the standardised CLSI M27-S4 broth dilution method.[28] […] This might be explained by the clog P data as the more lipophilic compounds should more readily penetrate the fungal membrane resulting in improved uptake or may relate to optimal fill of the small hydrophobic pocket leading to improved binding.
(§2) Antifungal MIC values were obtained according to the CLSI microdilution method for yeasts.[28]C. albicans strains CA14 and SC5314 were tested in triplicate. Cultures were diluted to 2.5 × 10^3 cells per mL in RPMI 1640 (Sigma), buffered with 0.165 M MOPS, pH 7.0. Antifungal compounds were dissolved in DMSO and added at a final concentration of 1% v/v DMSO. Plates were incubated at 37 °C and read at 48 h.

[2] = test system: C. albicans laboratory strain SC5314; assay: C. albicans susceptibility testing (CLSI broth microdilution MIC), strain SC5314; format: cell-based, Candida albicans; settings: Candida albicans, SC5314, 48 h, RPMI 1640, 37 °C, read at 48 h
Description: as §1, §2

[3] = molecular target: T1, native CaCYP51 (Candida albicans, UniProt P10613); assay: CaCYP51 type II ligand binding affinity (Kd) from difference spectra saturation curves; settings: 2.5 μM native CaCYP51; mean ± SD of three titrations; read-out: K d
T1 construct: made in house; host or cells: E. coli
Experimental: Azole titration was performed in triplicate.
The ligand–CaCYP51 complex was determined by non-linear regression (Levenberg–Marquardt algorithm) using a rearrangement of the Morrison equation for tight ligand binding,[38] while weak ligand binding was calculated by the Michaelis–Menten equation. Curve fitting for novel azole saturation curves was performed using the computer program ProFit 6.1.12 (QuantumSoft, Zurich, Switzerland) for Mac OSX. Kd values were determined for each of the three replicate titrations per azole compound and then mean Kd values and standard deviations calculated.

[4] = molecular target: T2, C. albicans CYP51 (CaCYP51) (Candida albicans, UniProt P10613); assay: CaCYP51 reconstitution assay (IC50); format: biochemical; settings: 1 μM CaCYP51, 60 μM lanosterol, 15 min at 37 °C
T2 construct: made in house; host or cells: E. coli
Experimental: Derivatives with a MIC <1 μg mL^−1 were chosen for IC50 testing.
C. albicans CYP51 was overexpressed in E. coli and purified and CaCYP51 reconstitutions assays performed.[10,37] The final reaction volume of 500 μL, contained; 1 μM C. albicans CYP51, 2 μM Homo sapiens cytochrome P450 reductase (CPR) (UniProtKB accession number P16435), 60 μM lanosterol, 50 μM dilaurylphosphatidylcholine, 4% w/v 2-hydroypropyl-cyclodextrin, 0.4 mg mL^−1 isocitrate dehydrogenase, 25 mM trisodium isocitrate, 50 mM NaCl, 5 mM MgCl2, and 40 mM MOPS (morpholinepropanesulfonic acid, pH 7.2). Antifungal compounds were added in 2.5 μL DMSO. The reaction was started by the addition of 4 mM NADPH-tetrasodium salt. Samples were shaken for 15 min at 37 °C and sterol metabolites extracted with ethyl acetate and derivatised with BSTFA.

[5] = test system: S. cerevisiae Y2301 overexpressed ScCYP51 Y140F; assay: MIC, recombinant S. cerevisiae strain Y2301 Y140F; format: cell-based; settings: Saccharomyces cerevisiae, pH 6.8, read-out: MIC Y2301 Y140F
Experimental: (§3) The most promising thiazole derivative 7b, and the extended amide derivatives 13a and 13b were evaluated against a panel of recombinant S. cerevisiae strains[24,31,32] expressing control levels of wild-type CYP51 (ScCYP51), overexpressed wild-type ScCYP51, overexpressed azole-resistant ScCYP51 Y140F/H mutations (S. cerevisiae Y140 equivalent to C. albicans Y132), overexpressed C. albicans efflux pumps MDR1a or CDR1B and overexpressed H. sapiens wild-type CYP51 (HsCYP51) (Table 3) at 24 and 48 h with each assay performed in triplicate.
(§4) Minimum inhibitory concentration (MIC) were determined according to recommendations outlined in the Clinical and Laboratory Standards Institute (CLSI) document M27-Ed4E[39] with modifications. Sabouraud dextrose (SD) medium (pH 6.8) was used instead of RPMI-1640 for inoculum and growth of the S. cerevisiae strains and cultures were incubated at 30 °C. […] Stock solutions of each agent were prepared in DMSO and the final concentration of DMSO was 1% (v/v) in SD. […] The final concentration of all other compounds ranged from 0.03–16 μg mL^−1. Three biological repeats were performed.

[6] = test system: S. cerevisiae Y2513 overexpressed ScCYP51 Y140H; assay: MIC, recombinant S. cerevisiae strain Y2513 Y140H; format: cell-based; settings: Saccharomyces cerevisiae, pH 6.8, read-out: MIC Y2513 Y140H
Experimental: as §3, §4

[7] = test system: S. cerevisiae Y2411 parent (control levels of wild-type ScCYP51); assay: MIC, recombinant S. cerevisiae strain Y2411 parent; format: cell-based; settings: Saccharomyces cerevisiae
Experimental: as §3, §4

[8] = test system: S. cerevisiae Y2760 overexpressed H. sapiens wild-type CYP51 (HsCYP51); assay: MIC, recombinant S. cerevisiae strain Y2760 HsCYP51; format: cell-based; settings: Saccharomyces cerevisiae
Experimental: as §3
The HsCYP51 ORF (NP_000777.1) was codon harmonized (ch) using DNA 2.0 for expression in S. cerevisiae and synthesized by ATUM (Newark, Ca, USA). The 3′ end of the ORF was extended to encode EQKI of the ScErg11 C-terminus, followed by a GGR linker and a 6xHis tag. Strain Y2514 was prepared by transforming host strain Y1857 with a transformation cassette including the above construct together with the ScPGK transcription terminator and URA3 selection marker located downstream, bordered by upstream and downstream parts of ScPDR5 gene identical to sequences in ScErg11 over-expressing strain Y941. Strain Y2514 constitutively overexpressed HsCYP51ch-6xHis and URA3 from the ScPDR5 locus.
Strain Y2757 (Y2514, PDR15::HsCPRch-6xHis-LoxP-HIS1-LoxP) was prepared by co-expressing the cognate reductase HsCRP in strain Y2514. Codon harmonisation and synthesis of human NADPH-cytochrome P450 reductase isoform 2 (HsCPRch, NP_001369584.1) ORF was performed by ATUM. The gene was 3′ extended with a sequence encoding GGR-6xHIS. A transformation cassette was prepared by recombinant PCR to include the HsCPRch ORF with 657 nucleotides the ScPDR5 promoter upstream, and the ScPGK terminator followed by the LoxP flanked ScHIS1 selection marker downstream. ScPDR15 specific arms bordering the construct enabled the cassette to be integrated between the nucleotide 441 of the 5′ UTR and nucleotide 1 of the 3′ UTR in PDR15.
Strain Y2758 (Y2757 ΔHIS1) was made using the following steps. Strain Y2757 was transformed with the pSH69 pGAL1-cre plasmid (Euroscarf, Germany) via selection on hygromycin (75 μg mL^−1) containing YPD plates. A single hygromycin positive colony was inoculated in 1% yeast extract, 2% peptone and 2% of galactose broth and incubated for 16 hours at 30 °C with shaking. The diluted culture was then plated on YPD agar and replica-plated on YPD + hygromycin and SD-HIS dropout agar plates. Deletion of the HIS selection marker downstream of HsCPRch-6xHis in the PDR15 locus was confirmed in double His and hygromycin negative isolates by PCR and DNA sequence analysis.
The endogenous ScERG11 ORF in strain Y2758 was removed by transforming with a LoxP- ScHIS1 containing cassette with arms complementing from +387 nucleotides in the 5′UTR and −60 nucleotides in the 3′UTR of the ScERG11 locus, resulting in strain Y2760 (ADΔΔ PDR5::HsCYP51ch-6×HIS-URA3; PDR15::HsCPRch6×HIS-LoxP, ΔERG11-LoxP-HIS1-LoxP).
as §4

[9] = test system: S. cerevisiae Y2300 overexpressed wild-type ScCYP51; assay: MIC, recombinant S. cerevisiae strain Y2300 ScCYP51; format: cell-based; settings: Saccharomyces cerevisiae
Experimental: as §3, §4

[10] = test system: S. cerevisiae Y570 overexpressing C. albicans ABC transporter CDR1B; assay: MIC, recombinant S. cerevisiae strain Y570 CaCDR1B; format: cell-based; settings: SD medium pH 6.8, 30 °C; 80% inhibition of growth
Experimental: as §3, §4

[11] = test system: S. cerevisiae Y525 overexpressing C. albicans MFS transporter MDR1a; assay: MIC, recombinant S. cerevisiae strain Y525 CaMDR1a; format: cell-based; settings: SD medium pH 6.8, 30 °C; 80% inhibition of growth
Experimental: as §4

T1 sequence (P10613 whole entry): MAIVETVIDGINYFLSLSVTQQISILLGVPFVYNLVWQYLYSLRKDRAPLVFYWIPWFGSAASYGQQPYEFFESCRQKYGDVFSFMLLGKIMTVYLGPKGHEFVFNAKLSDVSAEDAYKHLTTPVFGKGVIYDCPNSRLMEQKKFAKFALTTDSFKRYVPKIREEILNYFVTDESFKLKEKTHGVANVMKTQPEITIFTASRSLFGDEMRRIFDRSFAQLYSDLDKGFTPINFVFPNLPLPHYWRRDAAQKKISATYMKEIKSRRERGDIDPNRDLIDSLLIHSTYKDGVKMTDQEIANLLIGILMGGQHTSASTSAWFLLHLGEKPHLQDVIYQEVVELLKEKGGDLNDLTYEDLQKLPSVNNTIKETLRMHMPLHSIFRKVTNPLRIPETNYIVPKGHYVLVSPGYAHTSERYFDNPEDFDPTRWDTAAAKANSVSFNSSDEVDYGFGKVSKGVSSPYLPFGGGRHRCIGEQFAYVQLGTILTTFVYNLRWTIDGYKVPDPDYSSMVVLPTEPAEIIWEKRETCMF
T2 sequence (P10613 whole entry): as above

Row | SMILES | MIC [1] [µg/mL] | MIC [2] [µg/mL] | Kd [3] [nM] | IC50 [4] [nM] | MIC [5] [µg/mL] | MIC [6] [µg/mL] | MIC [10] [µg/mL] | MIC [11] [µg/mL] | also measured
1 | O=C(Nc1ccc(Cl)cc1)Nc1ccc(C(=O)NCC(O)(Cn2cncn2)c2ccc(Cl)cc2)cc1 (centres unmarked) [12a, N-(2-(4-Chlorophenyl)-2-hydroxy-3-(1H-1,2,4-triazol-1-yl)propyl)-4-(3-(4-chlorophenyl)ureido)benzamide] | 1 (≈ 1.9 µM) | 2 (≈ 3.81 µM) | – | – | – | – | – | – | –
2 | CCCCCOc1ccc(-c2cc(-c3ccc(C(=O)N[C@H]4C[C@@H](O)[C@@H](O)NC(=O)[C@@H]5[C@@H](O)[C@@H](C)CN5C(=O)[C@H]([C@H](O)CC(N)=O)NC(=O)[C@H]([C@H](O)[C@@H](O)c5ccc(O)c(OS(=O)(=O)O)c5)NC(=O)[C@@H]5C[C@@H](O)CN5C(=O)[C@H]([C@@H](C)O)NC4=O)cc3)no2)cc1 [Micafungin, reference compound] (X1-[Orn(4R-OH,5R-OH)]T[Hyp][hTyr(3S-OH,4S-OH,3'-OSO3H)][Gln(3R-OH)][Pro(3S-OH,4S-Me)]; lactam 1-C) | – | – | – | – | 0.125 | 0.125 | 0.125 | 0.125 | MIC ([7]; pH 6.8, read-out: MIC Y2411 parent): 0.125 µg/mL; MIC ([8]; pH 6.8, read-out: MIC Y2760 HsCYP51): 0.125 µg/mL; MIC ([9]; pH 6.8, read-out: MIC Y2300 ScCYP51): 0.125 µg/mL
3 | CC[C@@H]([C@H](C)O)n1ncn(-c2ccc(N3CCN(c4ccc(OC[C@@H]5CO[C@@](Cn6cncn6)(c6ccc(F)cc6F)C5)cc4)CC3)cc2)c1=O [PCZ, posaconazole, reference compound] | – | – | – | – | 0.06 | < 0.03 | 8 | < 0.03 | MIC ([7]; SD medium pH 6.8, 30 °C, 80% inhibition of growth, read-out: MIC Y2411 parent): < 0.03 µg/mL; MIC ([8]; SD medium pH 6.8, 30 °C, 80% inhibition of growth, read-out: MIC Y2760 HsCYP51): 8 µg/mL; MIC ([9]; SD medium pH 6.8, 30 °C, 80% inhibition of growth, read-out: MIC Y2300 ScCYP51): 0.06 µg/mL

Now from value to compound, other results behind:

Row | MIC [1] [µg/mL] | MIC [2] [µg/mL] | Kd [3] [nM] | IC50 [4] [nM] | SMILES | MIC [5] [µg/mL] | MIC [6] [µg/mL] | MIC [10] [µg/mL] | MIC [11] [µg/mL] | also measured
4 | 0.125 (≈ 0.223 µM) | 0.125 (≈ 0.223 µM) | 137 ± 14 | 470 | O=C(Nc1ccc(Cl)cc1)Nc1ccc(C(=O)NCC(O)(Cn2cncn2)c2ccc(Cl)cc2Cl)cc1 (centres unmarked) [12b, 4-(3-(4-Chlorophenyl)ureido)-N-(2-(2,4-dichlorophenyl)-2-hydroxy-3-(1H-1,2,4-triazol-1-yl)propyl)benzamide] | – | – | – | – | –
5 | 1 (≈ 1.83 µM) | 1 (≈ 1.83 µM) | – | – | O=C(NCC(O)(Cn1cncn1)c1ccc(Cl)cc1)c1ccc(NS(=O)(=O)c2ccc(Cl)cc2)cc1 (centres unmarked) [14a, N-(2-(4-Chlorophenyl)-2-hydroxy-3-(1H-1,2,4-triazol-1-yl)propyl)-4-((4-chlorophenyl)sulfonamido)benzamide] | – | – | – | – | –
6 | 0.25 (≈ 0.43 µM) | 0.25 (≈ 0.43 µM) | 94 ± 24 | 780 | O=C(NCC(O)(Cn1cncn1)c1ccc(Cl)cc1Cl)c1ccc(NS(=O)(=O)c2ccc(Cl)cc2)cc1 (centres unmarked) [14b, 4-((4-Chlorophenyl)sulfonamido)-N-(2-(2,4-dichlorophenyl)-2-hydroxy-3-(1H-1,2,4-triazol-1-yl)propyl)benzamide] | – | – | – | – | –
